# Experimental data as given in patent publication US20220169632A1, “METHODS AND MATERIALS FOR INCREASING OR MAINTAINING NICOTINAMIDE MONONUCLEOTIDE ADENYLYL TRANSFERASE-2 (NMNAT2) POLYPEPTIDE LEVELS” (University of Pittsburgh - Of the Commonwealth System of …, priority 2019, published 2022).
# Test system: NMNAT2
# Test: NMNAT2-Hibit nano-luciferase activity in stably transfected U87MG cells, various concentrations, 24 hours
# Type: cell-based
# Conditions: U87MG cells stably transfected with NMNAT2-Hibit luc plasmid
# Description: Selected compounds were tested in vitro. U87MG cells were stably transfected with NMNAT2-Hibit luc plasmid. Cells were treated with a test compound at various concentrations for 24 hours. Cells were then collected and assayed for nano-luciferase activity.
row,SMILES,E: compound efficacy for NMNAT2 activation (concentration giving >25% increase in NMNAT2 luciferase activity)
1,Cc1c(C)n(Cc2cccc(F)c2)c2ccc(C(=O)NCc3ccncc3)cc12 [BC20119],+++ (“+++” >25% increase in NMNAT2 luciferase activity at ≤1 μM.)
2,CCCCN(CC)Cc1ccc(CNC(=O)c2ccc3c(c2)c(C)c(C)n3Cc2cccc(F)c2)o1 [BC20120],+++ (“+++” >25% increase in NMNAT2 luciferase activity at ≤1 μM.)
3,O=C(CCCc1cn(Cc2ccccc2F)c2ccccc12)NCc1ccco1 [BC20121],++ (“++” >25% increase in NMNAT2 luciferase activity at >1 μM ≤25 μM.)
4,Cc1ccc(CNC(=O)CCCc2cn(Cc3ccccc3F)c3ccccc23)o1 [BC20122],++ (“++” >25% increase in NMNAT2 luciferase activity at >1 μM ≤25 μM.)
5,O=C(CCCc1cn(Cc2ccccc2F)c2ccccc12)NCC1CCCO1 (centres unmarked) [BC20123],++ (“++” >25% increase in NMNAT2 luciferase activity at >1 μM ≤25 μM.)
6,O=C(CCCc1cn(Cc2ccccc2F)c2ccccc12)NCc1cccc(F)c1 [BC20124],++ (“++” >25% increase in NMNAT2 luciferase activity at >1 μM ≤25 μM.)
7,Cc1ccccc1CNC(=O)CCCc1cn(Cc2ccccc2F)c2ccccc12 [BC20125],++ (“++” >25% increase in NMNAT2 luciferase activity at >1 μM ≤25 μM.)
8,Cc1cccc(CNC(=O)CCCc2cn(Cc3ccccc3F)c3ccccc23)c1 [BC20126],++ (“++” >25% increase in NMNAT2 luciferase activity at >1 μM ≤25 μM.)
9,COc1ccccc1CNC(=O)CCCc1cn(Cc2ccccc2F)c2ccccc12 [BC20127],++ (“++” >25% increase in NMNAT2 luciferase activity at >1 μM ≤25 μM.)
10,COc1cccc(CNC(=O)CCCc2cn(Cc3ccccc3F)c3ccccc23)c1 [BC20128],++ (“++” >25% increase in NMNAT2 luciferase activity at >1 μM ≤25 μM.)
11,O=C(CCCc1cn(Cc2ccccc2F)c2ccccc12)N1CCN(C(=O)c2ccco2)CC1 [BC20129],++ (“++” >25% increase in NMNAT2 luciferase activity at >1 μM ≤25 μM.)
12,CC(Cc1ccco1)NC(=O)CCCc1cn(Cc2ccccc2F)c2ccccc12 (centres unmarked) [BC20130],++ (“++” >25% increase in NMNAT2 luciferase activity at >1 μM ≤25 μM.)
13,O=C(CCCc1cn(Cc2ccccc2F)c2ccccc12)NCCc1ccccc1 [BC20131],++ (“++” >25% increase in NMNAT2 luciferase activity at >1 μM ≤25 μM.)
14,O=C(CCCc1cn(Cc2ccccc2F)c2ccccc12)NCc1cccnc1 [BC20132],++ (“++” >25% increase in NMNAT2 luciferase activity at >1 μM ≤25 μM.)
15,O=C(CCCc1cn(Cc2ccccc2F)c2ccccc12)NCc1ccncc1 [BC20133],++ (“++” >25% increase in NMNAT2 luciferase activity at >1 μM ≤25 μM.)
16,Cc1cccc(NC(=O)CCCc2cn(Cc3ccccc3F)c3ccccc23)c1C [BC20134],++ (“++” >25% increase in NMNAT2 luciferase activity at >1 μM ≤25 μM.)
17,O=C(CCCc1cn(Cc2cccc(F)c2)c2ccccc12)NCc1ccco1 [BC20135],++ (“++” >25% increase in NMNAT2 luciferase activity at >1 μM ≤25 μM.)
18,Cc1ccc(CNC(=O)CCCc2cn(Cc3cccc(F)c3)c3ccccc23)o1 [BC20136],++ (“++” >25% increase in NMNAT2 luciferase activity at >1 μM ≤25 μM.)

row,SMILES,E: compound efficacy for NMNAT2 activation (concentration giving >25% increase in NMNAT2 luciferase activity)
1,O=C(CCCc1cn(Cc2cccc(F)c2)c2ccccc12)NCC1CCCO1 (centres unmarked) [BC20137],++ (“++” >25% increase in NMNAT2 luciferase activity at >1 μM ≤25 μM.)
2,O=C(CCCc1cn(Cc2cccc(F)c2)c2ccccc12)NCc1ccccc1F [BC20138],++ (“++” >25% increase in NMNAT2 luciferase activity at >1 μM ≤25 μM.)
3,O=C(CCCc1cn(Cc2cccc(F)c2)c2ccccc12)NCc1cccc(F)c1 [BC20139],++ (“++” >25% increase in NMNAT2 luciferase activity at >1 μM ≤25 μM.)
4,Cc1ccccc1CNC(=O)CCCc1cn(Cc2cccc(F)c2)c2ccccc12 [BC20140],+ (“+” >25% increase in NMNAT2 luciferase activity at >25 μM.)
5,Cc1cccc(CNC(=O)CCCc2cn(Cc3cccc(F)c3)c3ccccc23)c1 [BC20141],+ (“+” >25% increase in NMNAT2 luciferase activity at >25 μM.)
6,COc1ccccc1CNC(=O)CCCc1cn(Cc2cccc(F)c2)c2ccccc12 [BC20142],++ (“++” >25% increase in NMNAT2 luciferase activity at >1 μM ≤25 μM.)
7,COc1cccc(CNC(=O)CCCc2cn(Cc3cccc(F)c3)c3ccccc23)c1 [BC20143],++ (“++” >25% increase in NMNAT2 luciferase activity at >1 μM ≤25 μM.)
8,O=C(CCCc1cn(Cc2cccc(F)c2)c2ccccc12)N1CCN(C(=O)c2ccco2)CC1 [BC20144],++ (“++” >25% increase in NMNAT2 luciferase activity at >1 μM ≤25 μM.)
9,CC(Cc1ccco1)NC(=O)CCCc1cn(Cc2cccc(F)c2)c2ccccc12 (centres unmarked) [BC20145],++ (“++” >25% increase in NMNAT2 luciferase activity at >1 μM ≤25 μM.)
10,O=C(CCCc1cn(Cc2cccc(F)c2)c2ccccc12)NCCc1ccccc1 [BC20146],++ (“++” >25% increase in NMNAT2 luciferase activity at >1 μM ≤25 μM.)
11,O=C(CCCc1cn(Cc2cccc(F)c2)c2ccccc12)NCc1cccnc1 [BC20147],++ (“++” >25% increase in NMNAT2 luciferase activity at >1 μM ≤25 μM.)
12,O=C(CCCc1cn(Cc2cccc(F)c2)c2ccccc12)NCc1ccncc1 [BC20148],++ (“++” >25% increase in NMNAT2 luciferase activity at >1 μM ≤25 μM.)
13,Cc1cccc(NC(=O)CCCc2cn(Cc3cccc(F)c3)c3ccccc23)c1C [BC20149],++ (“++” >25% increase in NMNAT2 luciferase activity at >1 μM ≤25 μM.)
14,Cc1ccc(CNC(=O)CCCc2cn(Cc3ccccc3C)c3ccccc23)o1 [BC20150],++ (“++” >25% increase in NMNAT2 luciferase activity at >1 μM ≤25 μM.)
15,Cc1ccccc1Cn1cc(CCCC(=O)NCc2ccccc2F)c2ccccc21 [BC20151],++ (“++” >25% increase in NMNAT2 luciferase activity at >1 μM ≤25 μM.)
16,Cc1ccccc1Cn1cc(CCCC(=O)NCc2cccc(F)c2)c2ccccc21 [BC20152],++ (“++” >25% increase in NMNAT2 luciferase activity at >1 μM ≤25 μM.)
17,Cc1ccccc1CNC(=O)CCCc1cn(Cc2ccccc2C)c2ccccc12 [BC20153],++ (“++” >25% increase in NMNAT2 luciferase activity at >1 μM ≤25 μM.)
